Data taken from ChEMBL document CHEMBL1129671, “Substituted (pyrroloamino)pyridines: potential agents for the treatment of Alzheimer's disease” (J Med Chem, 1996).
pIC50: −log10 of the molar value.

Assays:
[1] = target: Muscarinic acetylcholine receptor; experiment: Inhibition of radioligand [3H]QNB binding to muscarinic acetylcholine receptor in the rat forebrain in the presence of zinc
[2] = target: Muscarinic acetylcholine receptor; experiment: Inhibition of radioligand [3H]QNB binding (competitive inhibition) to muscarinic acetylcholine receptor in the rat forebrain in the absence of zinc
Mus musculus [3] = experiment: Antagonistic activity against scopolamine-induced behavioral deficits in mice by subcutaneous administration at a concentration of 5.0 mg/kg; assay type: functional
Rattus norvegicus [4] = species on record: Rattus norvegicus; experiment: Compound was tested for inhibition of [3H]dopamine against rat striatum using in vitro biogenic amine uptake assay using rat brain synaptosomes.; assay type: functional
Mus musculus [5] = experiment: Antagonistic activity against scopolamine-induced behavioral deficits in mice by subcutaneous administration at a concentration of 0.16 mg/kg; assay type: functional
Mus musculus [6] = experiment: Antagonistic activity against scopolamine-induced behavioral deficits in mice by subcutaneous administration at a concentration of 0.31 mg/kg; assay type: functional
Mus musculus [7] = experiment: Antagonistic activity against scopolamine-induced behavioral deficits in mice by subcutaneous administration at a concentration of 0.63 mg/kg; assay type: functional
Rattus norvegicus [8] = species on record: Rattus norvegicus; experiment: Compound was tested for inhibition of [3H]norepinephrine against rat whole brain using in vitro biogenic amine uptake assay using rat brain synaptosomes.; assay type: functional
Mus musculus [9] = experiment: Evaluated for the prevention of TBZ ptosis by intraperitoneal administration in mice; assay type: functional; conditions: ip
Mus musculus [10] = experiment: Antagonistic activity against scopolamine-induced behavioral deficits in mice by subcutaneous administration at a concentration of 1.25 mg/kg; assay type: functional
Rattus norvegicus [11] = species on record: Rattus norvegicus; experiment: Compound was tested for inhibition of [3H]5-HT against rat whole brain using in vitro biogenic amine uptake assay using rat brain synaptosomes.; assay type: functional
[12] = target: T1, Adrenergic receptor alpha-1 (Rattus norvegicus, UniProt P15823+P23944+P43140); experiment: Compound was tested for inhibition of [3H]WB-4101 against Alpha-1 adrenergic receptor from rat whole brain membranes using in vitro adrenergic receptor binding assay.; assay type: cell membranes, Membrane
T1 sequence (P15823 whole entry): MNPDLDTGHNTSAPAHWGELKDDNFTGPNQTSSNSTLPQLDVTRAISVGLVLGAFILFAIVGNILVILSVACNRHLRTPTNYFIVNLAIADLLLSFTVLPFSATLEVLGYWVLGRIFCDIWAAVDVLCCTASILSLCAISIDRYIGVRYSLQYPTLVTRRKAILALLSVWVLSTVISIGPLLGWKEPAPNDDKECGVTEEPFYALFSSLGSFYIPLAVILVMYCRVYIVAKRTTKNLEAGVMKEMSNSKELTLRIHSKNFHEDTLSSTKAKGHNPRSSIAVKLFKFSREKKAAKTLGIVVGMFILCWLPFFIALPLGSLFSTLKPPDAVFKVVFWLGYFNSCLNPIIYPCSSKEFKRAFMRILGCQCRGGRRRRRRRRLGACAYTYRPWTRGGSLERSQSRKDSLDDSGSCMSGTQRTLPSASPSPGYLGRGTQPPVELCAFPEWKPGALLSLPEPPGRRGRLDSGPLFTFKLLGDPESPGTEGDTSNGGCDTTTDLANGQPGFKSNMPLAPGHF
T1 sequence (P23944 whole entry): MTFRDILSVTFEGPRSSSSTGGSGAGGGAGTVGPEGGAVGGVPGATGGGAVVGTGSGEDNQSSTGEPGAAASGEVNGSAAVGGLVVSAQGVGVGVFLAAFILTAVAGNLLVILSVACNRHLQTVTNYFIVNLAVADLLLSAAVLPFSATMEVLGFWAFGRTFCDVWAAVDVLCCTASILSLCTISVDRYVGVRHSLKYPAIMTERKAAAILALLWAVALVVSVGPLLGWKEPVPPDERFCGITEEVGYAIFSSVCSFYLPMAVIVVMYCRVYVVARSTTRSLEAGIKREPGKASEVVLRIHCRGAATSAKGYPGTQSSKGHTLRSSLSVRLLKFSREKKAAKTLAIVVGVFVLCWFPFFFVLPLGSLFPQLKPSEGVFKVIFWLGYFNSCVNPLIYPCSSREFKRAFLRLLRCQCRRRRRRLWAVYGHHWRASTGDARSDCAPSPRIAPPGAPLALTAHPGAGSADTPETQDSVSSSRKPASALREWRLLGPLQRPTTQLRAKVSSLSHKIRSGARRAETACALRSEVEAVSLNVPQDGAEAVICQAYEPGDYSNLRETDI
T1 sequence (P43140 whole entry): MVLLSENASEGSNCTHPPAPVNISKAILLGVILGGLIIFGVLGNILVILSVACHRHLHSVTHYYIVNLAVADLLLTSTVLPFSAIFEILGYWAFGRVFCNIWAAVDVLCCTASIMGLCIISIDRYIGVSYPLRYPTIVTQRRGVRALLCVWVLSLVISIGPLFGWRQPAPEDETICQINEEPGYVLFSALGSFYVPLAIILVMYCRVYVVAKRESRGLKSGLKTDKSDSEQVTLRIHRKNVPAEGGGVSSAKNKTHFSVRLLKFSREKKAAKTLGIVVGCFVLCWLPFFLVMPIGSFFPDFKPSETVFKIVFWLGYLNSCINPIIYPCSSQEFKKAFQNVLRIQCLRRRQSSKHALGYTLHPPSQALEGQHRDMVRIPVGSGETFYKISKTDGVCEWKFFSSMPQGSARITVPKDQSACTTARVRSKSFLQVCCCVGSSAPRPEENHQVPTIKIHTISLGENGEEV

Acetylcholinesterase = target: T2, Acetylcholinesterase (Rattus norvegicus, UniProt P37136); experiment: In vitro inhibition of Acetylcholinesterase from rat striatum
T2 sequence (P37136 whole entry): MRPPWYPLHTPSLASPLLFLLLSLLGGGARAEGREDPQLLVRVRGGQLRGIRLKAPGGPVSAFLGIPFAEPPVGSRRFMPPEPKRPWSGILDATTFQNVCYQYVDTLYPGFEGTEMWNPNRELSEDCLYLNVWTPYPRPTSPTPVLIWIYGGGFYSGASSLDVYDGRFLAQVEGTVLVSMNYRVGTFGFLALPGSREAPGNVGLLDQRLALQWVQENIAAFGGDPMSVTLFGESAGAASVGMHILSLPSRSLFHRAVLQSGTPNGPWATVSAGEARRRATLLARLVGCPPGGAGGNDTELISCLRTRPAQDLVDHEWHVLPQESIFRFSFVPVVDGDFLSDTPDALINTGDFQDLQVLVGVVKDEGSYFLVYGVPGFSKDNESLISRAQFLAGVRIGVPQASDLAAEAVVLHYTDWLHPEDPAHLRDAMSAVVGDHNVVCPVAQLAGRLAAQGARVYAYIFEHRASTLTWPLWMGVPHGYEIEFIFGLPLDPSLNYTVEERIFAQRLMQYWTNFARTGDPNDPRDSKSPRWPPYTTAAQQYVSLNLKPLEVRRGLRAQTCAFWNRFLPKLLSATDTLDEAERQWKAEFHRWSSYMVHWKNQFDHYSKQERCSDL

**Q.** What does the source list for `C=Cc1cccn1N(C)c1ccncc1`?
**A.** IC50 [1]: 18 µM; IC50 [2]: 8.8 µM; Response (Mus musculus [3]): 20%; pIC50 (Rattus norvegicus [4]): < 4.70; Response (Mus musculus [5]): 27%; Response (Mus musculus [6]): 33%; Response (Mus musculus [7]): 33%; pIC50 (Rattus norvegicus [8]): 4.85; ED50 (Mus musculus [9]): 8.3 mg/kg; Response (Mus musculus [10]): 33%; pIC50 (Rattus norvegicus [11]): < 4.70; IC50 [12]: 5.9 µM; pIC50 (Acetylcholinesterase): < 4.00
